Consider two molecules from patent publication US11596613B2, “Compositions and methods for treating cancer” (UNIVERSITY OF IOWA RESEARCH FOUNDATION, priority 2015, dated 2023).

The test system of the assay is A375 xenografts. Kind of assay: A375 xenografts in athymic nu/nu mice treated with PLX4720 diet and/or BSO in drinking water. It is filed as in vivo. Here is the method: 2-Mercaptoethanol is a reducing agent that leads to reduction of disulphide bonds to produce thiols. […] The effect of eliminating GSH in vivo was tested by treating mice (Athymic nu/nu) bearing A375 xenografts with rodent diet (AIN-76A) containing PLX4720 ([…], 416 mg/kg of diet) alone and in combination with BSO (15 mM in drinking water). […] Tumor xenografts in mice treated with the AIN-76 diet mixed with PLX4720 were responsive initially, but approximately 80% of these tumors acquired resistance to BRAFi treatment alone within 140 days (i.e., 20% complete responses; FIG. 2). On the contrary, the combination of BSO with PLX4720 produced nearly 90% complete and durable tumor responses (FIG. 4). […] Tumor progression was defined as a 50% increase (approximately a two standard deviation increase) in tumor volume from study initiation.
Female athymic nu/nu mice (age six weeks) were purchased from Envigo (previously Harlan Laboratories) and housed in the Animal Care Facility at The University of Iowa (Iowa City, Iowa). All procedures were approved by The University of Iowa Institutional Animal Care and Use Committee. All mice were naïve to treatments at the time of xenograft. For each xenograft, 1-3×10^6 cells (451LuBR and A375) were implanted subcutaneously in a 1:1 suspension of Matrigel (Corning) and PBS (flank) using a 27-gauge needle. For all in vivo studies, the mice were randomly assigned to experimental groups post-implant. Animals developed tumors within 7-10 days post-implant. Initiation of treatments was standardized to the time that tumor volume ([(longest length)×(smallest length^2)]/2) reached 80-100 mm^3.
The dose and mode of delivery for PBA was determined by analyzing the pharmacokinetics C-14 labeled PBA in mice (FIG. 5). These drugs were administered alone and in combination depending on the experimental group. The mice were monitored for their state of health every day. Tumor volume and animal weights were measured twice per week. Mice were euthanized when the observed state of health reached the endpoint according to the approved IACUC protocol or when the tumor volume reached 1500 mm^3.
Statistics was conducted using the tumor sizes (mm^3) that were obtained periodically throughout the experiments, resulting in repeated measurements for each mouse. Linear mixed effects regression models were used to estimate and compare treatment group-specific tumor growth curves. Pairwise comparisons were performed to identify treatment group differences in the growth curves. The Kaplan-Meier method was used to estimate the survival curves, and group comparisons were made using the log rank test. Mice who developed ulcerations were censored at day of euthanasia. […]

On to `CCCCS(=N)(=O)CCC(N)C(=O)O` (stereo not shown) [BSO, buthionine sulfoximine], for which the tumor growth rate entry (BSO 15 mM in drinking water, versus untreated controls) is given as “No significant difference”. The “GSH concentrations in tumor samples” value (mice treated with BSO vs controls) was “significantly lower”.
For the molecule `CCCS(=O)(=O)Nc1ccc(F)c(C(=O)c2c[nH]c3ncc(Cl)cc23)c1F` [PLX4720], the “complete (and durable) tumor responses” value (PLX4720 416 mg/kg of diet, alone or with BSO 15 mM in drinking water) is listed as 20%. Moreover, the “tumors that acquired resistance to BRAFi treatment” value (within 140 days, PLX4720 416 mg/kg of AIN-76A diet) is “approximately 80%”.
